In ChEMBL document CHEMBL1138590, “Discovery of novel dihydro-9,10-ethano-anthracene carboxamides as glucocorticoid receptor modulators” (Bioorg Med Chem Lett, 2009):

Legend:
Glucocorticoid receptor [1] = target: T1, Glucocorticoid receptor (Homo sapiens, UniProt P04150); assay: Transrepression activity at GR in IL-1-beta-stimulated human A549 cells assessed as inhibition of NF-kappaB-dependent E-selectin transcription by luciferase reporter gene assay; assay type: cell-based
T1 sequence (P04150 whole entry): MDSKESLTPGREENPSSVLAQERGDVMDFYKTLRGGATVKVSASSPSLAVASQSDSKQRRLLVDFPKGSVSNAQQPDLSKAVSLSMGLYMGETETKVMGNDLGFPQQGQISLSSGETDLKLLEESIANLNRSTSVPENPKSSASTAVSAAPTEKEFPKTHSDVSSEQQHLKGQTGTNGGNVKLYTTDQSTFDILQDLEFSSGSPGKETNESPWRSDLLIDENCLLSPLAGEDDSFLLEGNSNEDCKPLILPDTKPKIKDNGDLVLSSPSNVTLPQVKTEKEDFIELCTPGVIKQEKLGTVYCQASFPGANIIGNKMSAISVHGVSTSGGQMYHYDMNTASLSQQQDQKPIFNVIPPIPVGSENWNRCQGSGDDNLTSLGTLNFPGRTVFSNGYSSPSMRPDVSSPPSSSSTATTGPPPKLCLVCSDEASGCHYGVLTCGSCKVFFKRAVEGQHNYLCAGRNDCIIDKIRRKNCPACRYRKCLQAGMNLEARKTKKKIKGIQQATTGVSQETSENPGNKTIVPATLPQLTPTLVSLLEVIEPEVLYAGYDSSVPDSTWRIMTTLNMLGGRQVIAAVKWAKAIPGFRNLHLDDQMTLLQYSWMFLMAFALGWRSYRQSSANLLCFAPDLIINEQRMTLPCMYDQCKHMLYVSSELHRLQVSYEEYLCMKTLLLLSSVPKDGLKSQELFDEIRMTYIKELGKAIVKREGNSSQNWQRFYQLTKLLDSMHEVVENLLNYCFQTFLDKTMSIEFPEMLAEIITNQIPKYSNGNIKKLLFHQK

Glucocorticoid receptor [2] = target: T1, Glucocorticoid receptor; assay: Agonist activity at GR ligand binding domain expressed in human NP1 cells assessed as glucocorticoid response element transactivation by GAL4 luciferase reporter gene assay; assay type: cell-based
Glucocorticoid receptor [3] = target: T1, Glucocorticoid receptor; assay: Displacement of FITC-dexamethasone from human recombinant glucocorticoid receptor alpha by fluorescence polarization assay
Glucocorticoid receptor [4] = target: T1, Glucocorticoid receptor; assay: Transrepression activity at GR in PMA-stimulated human A549 cells assessed as inhibition of AP1 response element-induced luciferase reporter gene activity; assay type: cell-based
[5] = target: T2, Mineralocorticoid receptor (Homo sapiens) (UniProt P08235); assay: Antagonist activity at mineralocorticoid receptor in human A549 cells assessed as inhibition of 1.25 nM aldosterone-induced effect at 0.1 uM; assay type: functional, cell-based
T2 sequence (whole entry): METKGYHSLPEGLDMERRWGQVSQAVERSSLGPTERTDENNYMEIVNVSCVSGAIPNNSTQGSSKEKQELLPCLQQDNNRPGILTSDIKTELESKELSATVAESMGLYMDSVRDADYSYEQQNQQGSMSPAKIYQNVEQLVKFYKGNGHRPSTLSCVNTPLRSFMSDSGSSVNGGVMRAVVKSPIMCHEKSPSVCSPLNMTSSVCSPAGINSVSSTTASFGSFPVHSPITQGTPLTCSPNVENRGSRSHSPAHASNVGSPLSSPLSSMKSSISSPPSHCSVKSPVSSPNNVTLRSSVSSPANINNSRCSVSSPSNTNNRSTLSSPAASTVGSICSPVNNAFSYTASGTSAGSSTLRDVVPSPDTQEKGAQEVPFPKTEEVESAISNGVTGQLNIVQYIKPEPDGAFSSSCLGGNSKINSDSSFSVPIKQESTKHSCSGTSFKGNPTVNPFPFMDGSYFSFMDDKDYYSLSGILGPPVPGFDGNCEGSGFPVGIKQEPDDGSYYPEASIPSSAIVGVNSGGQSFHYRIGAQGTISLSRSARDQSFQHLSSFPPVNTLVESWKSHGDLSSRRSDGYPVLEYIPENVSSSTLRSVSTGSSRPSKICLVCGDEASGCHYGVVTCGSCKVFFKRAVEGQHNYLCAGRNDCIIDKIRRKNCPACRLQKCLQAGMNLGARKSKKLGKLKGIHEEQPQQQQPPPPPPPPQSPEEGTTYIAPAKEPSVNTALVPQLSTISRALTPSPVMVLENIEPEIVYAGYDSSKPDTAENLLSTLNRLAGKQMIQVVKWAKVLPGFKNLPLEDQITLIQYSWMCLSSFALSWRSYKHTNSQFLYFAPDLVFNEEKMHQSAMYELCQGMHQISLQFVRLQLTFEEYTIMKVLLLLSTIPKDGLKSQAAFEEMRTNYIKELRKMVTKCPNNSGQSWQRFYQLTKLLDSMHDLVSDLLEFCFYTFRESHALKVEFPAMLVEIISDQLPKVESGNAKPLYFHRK

EC50 (Glucocorticoid receptor [1])	EC50 (Glucocorticoid receptor [2])	Ki (Glucocorticoid receptor [3])	EC50 (Glucocorticoid receptor [4])	Compound	inhibition [5]
> 5000 nM	> 10000 nM	–	1070 nM	CC1(C(=O)Nc2nccs2)CC2([N+](=O)[O-])c3ccccc3C1c1ccccc12 (stereo not given)	–
–	–	5.4 nM	295 nM	CC1(C(=O)Nc2nncs2)CC2c3ccccc3C1c1ccccc12 (stereo not given)	–
–	–	26.2 nM	544 nM	C[C@]1(C(=O)Nc2nccs2)CC2c3ccccc3C1c1ccccc12	–
–	–	12.7 nM	610 nM	Cc1cnc(NC(=O)C2(C)CC3c4ccccc4C2c2ccccc23)s1 (stereo in doubt; 3)	–
–	–	3.9 nM	> 2500 nM	CCC1(C(=O)Nc2nccs2)CC2c3ccccc3C1c1ccccc12 (stereo not given)	–
–	–	22.6 nM	923 nM	Cc1nc(NC(=O)C2(C)CC3c4ccccc4C2c2ccccc23)sc1C (stereo not given)	–
–	–	82.5 nM	1240 nM	CN(C(=O)C1(C)CC2c3ccccc3C1c1ccccc12)c1nccs1 (stereo not given)	–
9.9 nM	175 nM	–	119 nM	CC1(C(=O)Nc2nccs2)CC2(Br)c3ccccc3C1c1ccccc12 (stereo not given)	–
12.3 nM	322 nM	–	229 nM	CC1(C(=O)Nc2nccs2)CC2(Cl)c3ccccc3C1c1ccccc12 (stereo not given)	–
–	–	–	–	CC12CC(C)(C(=O)Nc3nccs3)C(c3ccccc31)c1ccccc12 (stereo in doubt; 17a)	49%
8.3 nM	121 nM	–	14.7 nM	CC12CC(C)(C(=O)Nc3nccs3)C(c3ccccc31)c1ccccc12 (stereo in doubt; 17)	–
> 5000 nM	> 10000 nM	–	1160 nM	CC1(C(=O)Nc2nccs2)CC2c3ccccc3C1([N+](=O)[O-])c1ccccc12 (stereo not given)	–
–	–	187 nM	972 nM	Cc1cnc(NC(=O)C2(C)CC3c4ccccc4C2c2ccccc23)s1 (single isomer, unassigned; isomer B)	–
–	–	–	–	CC12CC(C)(C(=O)Nc3nncs3)C(c3ccccc31)c1ccccc12 (single isomer, unassigned; isomer A)	53%
–	–	303 nM	> 5000 nM	O=C(Nc1nccs1)C1(CCO)CC2c3ccccc3C1c1ccccc12 (stereo not given)	–
> 5000 nM	> 10000 nM	67.8 nM	800 nM	CC12CC(C)(C(=O)Nc3nccs3)C(c3ccccc31)c1ccccc12 (single isomer, unassigned; isomer B)	–
–	–	158 nM	> 5000 nM	CC1(C(=O)Nc2ccc([N+](=O)[O-])cc2O)CC2c3ccccc3C1c1ccccc12 (stereo not given)	–
678 nM	> 10000 nM	–	874 nM	CC1(C(=O)Nc2nccs2)CC2c3ccccc3C1(C#N)c1ccccc12 (stereo not given)	–
–	–	8.7 nM	> 5000 nM	Cc1csc(NC(=O)C2(C)CC3c4ccccc4C2c2ccccc23)n1 (stereo not given)	–

Compound	EC50 (Glucocorticoid receptor [1])	EC50 (Glucocorticoid receptor [2])	Ki (Glucocorticoid receptor [3])	EC50 (Glucocorticoid receptor [4])	inhibition [5]
CC12CC(C)(C(=O)Nc3nncs3)C(c3ccccc31)c1ccccc12 (stereo in doubt; 18b)	152 nM	> 2500 nM	49.7 nM	3830 nM	–
CC1(C(=O)Nc2nccs2)CC2(C#N)c3ccccc3C1c1ccccc12 (stereo not given)	426 nM	> 10000 nM	–	331 nM	–
C[C@]1(C(=O)Nc2nccs2)CC2(C#N)c3ccccc3C1c1ccccc12	> 5000 nM	> 10000 nM	37.8 nM	837 nM	–
CC12CC(C)(C(=O)Nc3nncs3)C(c3ccccc31)c1ccccc12 (stereo in doubt; 18)	5.2 nM	> 10000 nM	–	16.9 nM	–
CC1(C(=O)Nc2ncc[nH]2)CC2c3ccccc3C1c1ccccc12 (stereo not given)	–	–	92.6 nM	> 5000 nM	–
